pIC50: −log10 of the molar value.
Molecular target: T1, full length AKT E17K (Homo sapiens, UniProt P31749, E17K)
T1 construct: host or cells: HEK-293 (ATCC CRL-1573)
Experiment: NanoBRET Target Engagement (TE) Assay
Assay type: cell-based
Conditions: competitive tracer displacement in living cells, read-out: AKT1 E17K IC50
Excerpt: The NanoBRET™ Target Engagement (TE) Intracellular Kinase Assays are based on the NanoBRET™ System (Promega Corporation), an energy transfer technique designed to measure molecular proximity in living cells. The NanoBRET™ TE Assays measure the apparent affinity of test compounds by competitive displacement of the NanoBRET™ tracer compound, which is a cell permeable molecule engineered to be reversibly bound to a NanoLuc® luciferase-kinase fusion expressed in cells. For compound screening, when a test compound binds to the selected kinase, the BRET signal is attenuated. […] All cells were evaluated for viability prior to transfection and optimization of the transfection was done prior to experimentation. […] Following transfection, cells were washed and resuspended in Opti-MEM. NanoBRET assays were performed in white, 384-well plates (Corning) at a density of […]. All example compounds were prepared as concentrated stock solutions in DMSO (Sigma-Aldrich). Compounds are dissolved in DMSO to make 10 mM stock solution. […] A Labcyte ECHO 550 compound dispenser was used to facilitate compound transfer directly to cells. Cells were equilibrated for 2 hr with energy transfer probes and example compound prior to BRET measurements. […] For target engagement analysis, the energy transfer probes were added to the cells at concentrations optimized for the target in question (AKT E17K). Following compound incubation, NanoBRET NanoGlo Substrate (Promega Cat #N157D) and Extracellular Nanoluc Inhibitor (Promega Cat #N235C) was added according to the manufacturer's recommended protocol, and luminescence was measured on Envision Reader (Perkin Elmer) Multimode Luminometer equipped with 450 nm BPfilter (donor) and 600 nm LPfilter (acceptor), using 0.5 s integration time. Milli-BRET units (mBU) are calculated by multiplying the raw BRET values by 1000. Apparent tracer affinity values (EC50) were determined using the sigmoidal dose-response (variable slope).
Competitive displacement data were then plotted and data were fit to determine the EC50 value for each example compound.

T1 sequence (P31749 whole entry E17K): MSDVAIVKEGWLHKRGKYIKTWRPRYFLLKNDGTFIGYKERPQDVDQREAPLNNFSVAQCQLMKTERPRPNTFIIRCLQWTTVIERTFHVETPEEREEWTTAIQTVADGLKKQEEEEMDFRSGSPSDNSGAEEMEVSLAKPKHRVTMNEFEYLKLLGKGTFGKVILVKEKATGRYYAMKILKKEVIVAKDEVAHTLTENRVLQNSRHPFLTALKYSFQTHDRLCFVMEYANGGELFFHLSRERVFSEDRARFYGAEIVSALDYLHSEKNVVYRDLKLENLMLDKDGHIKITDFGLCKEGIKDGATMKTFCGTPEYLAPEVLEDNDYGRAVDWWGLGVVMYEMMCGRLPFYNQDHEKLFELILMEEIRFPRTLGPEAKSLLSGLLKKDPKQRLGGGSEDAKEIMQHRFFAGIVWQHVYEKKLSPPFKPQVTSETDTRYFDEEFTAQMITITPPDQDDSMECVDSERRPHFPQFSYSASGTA

| SMILES | pIC50 |
| --- | --- |
| CC(=O)Nc1cccc(-c2ccc3nc(-c4cccnc4N)n(-c4ccc(CN5CCN(c6cnnc(C#N)c6)CC5)cc4)c3n2)c1 [Example 43, N-(3-(2-(2-Aminopyridin-3-yl)-3-(4-((4-(6-cyanopyridazin-4-yl)piperazin-1-yl)methyl)phenyl)-3H-imidazo[4,5-b]pyridin-5-yl)phenyl)acetamide] | 6.22 to 7.22 |
| CC(=O)Nc1cccc(-c2ccc3nc(-c4cccnc4N)n(-c4ccc(CN5CCN(c6cc(C#N)cnn6)CC5)cc4)c3n2)c1 [Example 45, N-(3-(2-(2-Aminopyridin-3-yl)-3-(4-((4-(5-cyanopyridazin-3-yl)piperazin-1-yl)methyl)phenyl)-3H-imidazo[4,5-b]pyridin-5-yl)phenyl)acetamide] | 6.22 to 7.22 |
| N#Cc1nccc(NCc2ccc(-n3c(-c4cccnc4N)nc4cccnc43)cc2)n1 [Example 47, 4-((4-(2-(2-Aminopyridin-3-yl)-3H-imidazo[4,5-b]pyridin-3-yl)benzyl)amino)pyrimidine-2-carbonitrile] | 5.00 to 6.22 |
| N#Cc1cnnc(NCc2ccc(-n3c(-c4cccnc4N)nc4cccnc43)cc2)c1 [Example 50, 6-((4-(2-(2-Aminopyridin-3-yl)-3H-imidazo[4,5-b]pyridin-3-yl)benzyl)amino)pyridazine-4-carbonitrile] | 5.00 to 6.22 |
| N#Cc1cnnc(NC2CCN(Cc3ccc(-n4c(-c5cccnc5N)nc5cccnc54)cc3)CC2)c1 [Example 51, 6-((1-(4-(2-(2-Aminopyridin-3-yl)-3H-imidazo[4,5-b]pyridin-3-yl)benzyl)piperidin-4-yl)amino)pyridazine-4-carbonitrile] | 5.00 to 6.22 |
| N#Cc1cnnc(N2CCN(Cc3ccc(-n4c(-c5cccnc5N)nc5ccc(-c6ccccc6)nc54)cc3)CC2)c1 [Example 53, 6-(4-(4-(2-(2-Aminopyridin-3-yl)-5-phenyl-3H-imidazo[4,5-b]pyridin-3-yl)benzyl)piperazin-1-yl)pyridazine-4-carbonitrile] | 6.22 to 7.22 |
| N#Cc1cnnc(NC2CCN(Cc3ccc(-n4c(-c5cccnc5N)nc5ccc(-c6ccccc6)nc54)cc3)CC2)c1 [Example 54, 6-((1-(4-(2-(2-Aminopyridin-3-yl)-5-phenyl-3H-imidazo[4,5-b]pyridin-3-yl)benzyl)piperidin-4-yl)amino)pyridazine-4-carbonitrile] | 6.22 to 7.22 |
| N#Cc1cncc(C(=O)NC2CCN(Cc3ccc(-n4c(-c5cccnc5N)nc5ccc(-c6ccccc6)nc54)cc3)CC2)c1 [Example 57, N-(1-(4-(2-(2-Aminopyridin-3-yl)-5-phenyl-3H-imidazo[4,5-h]pyridin-3-yl)benzyl)piperidin-4-yl)-5-cyanonicotinamide] | 6.22 to 7.22 |
| N#Cc1cc(NC2CCN(Cc3ccc(-n4c(-c5cccnc5N)nc5cccnc54)cc3)CC2)ccn1 [Example 62, 4-((1-(4-(2-(2-Aminopyridin-3-yl)-3H-imidazo[4,5-b]pyridin-3-yl)benzyl)piperidin-4-yl)amino)picolinonitrile] | 5.00 to 6.22 |
| N#Cc1cccc(NC2CCN(Cc3ccc(-n4c(-c5cccnc5N)nc5cccnc54)cc3)CC2)n1 [Example 63, 6-((1-(4-(2-(2-Aminopyridin-3-yl)-3H-imidazo[4,5-b]pyridin-3-yl)benzyl)piperidin-4-yl)amino)picolinonitrile] | 5.00 to 6.22 |
| N#Cc1cc(NC2CCN(Cc3ccc(-n4c(-c5cccnc5N)nc5cccnc54)cc3)CC2)ncn1 [Example 64, 6-((1-(4-(2-(2-aminopyridin-3-yl)-3H-imidazo[4,5-b]pyridin-3-yl)benzyl)piperidin-4-yl)amino)pyrimidine-4-carbonitrile] | 5.00 to 6.22 |
| N#Cc1cncc(N2CCN(Cc3ccc(-n4c(-c5cccnc5N)nc5ccc(-c6ccccc6)nc54)cc3)CC2)c1 [Example 65, 5-(4-(4-(2-(2-Aminopyridin-3-yl)-5-phenyl-3H-imidazo[4,5-b]pyridin-3-yl)benzyl)piperazin-1-yl)nicotinonitrile] | 6.22 to 7.22 |
| N#Cc1ccnc(N2CCN(Cc3ccc(-n4c(-c5cccnc5N)nc5ccc(-c6ccccc6)nc54)cc3)CC2)c1 [Example 66, 2-(4-(4-(2-(2-Aminopyridin-3-yl)-5-phenyl-3H-imidazo[4,5-b]pyridin-3-yl)benzyl)piperazin-1-yl)isonicotinonitrile] | 5.00 to 6.22 |
| N#Cc1cncc(N2CCN(Cc3ccc(-n4c(-c5cccnc5N)nc5ccc(-c6ccccc6)nc54)cc3)CC2)n1 [Example 67, 6-(4-(4-(2-(2-Aminopyridin-3-yl)-5-phenyl-3H-imidazo[4,5-b]pyridin-3-yl)benzyl)piperazin-1-yl)pyrazine-2-carbonitrile] | 6.22 to 7.22 |

Next, values leading:

| pIC50 | SMILES |
| --- | --- |
| > 7.82 | CC(=O)Nc1cccc(-c2ccc3nc(-c4cccnc4N)n(-c4ccc(CN5CCN(c6cncc(C#N)n6)CC5)cc4)c3n2)c1 [Example 40, N-(3-(2-(2-aminopyridin-3-yl)-3-(4-((4-(6-cyanopyrazin-2-yl)piperazin-1-yl)methyl)phenyl)-3H-imidazo[4,5-b]pyridin-5-yl)phenyl)acetamide] |
| > 7.82 | CC(=O)Nc1cccc(-c2ccc3nc(-c4cccnc4N)n(-c4ccc(CN5CCN(c6cc(C#N)ncn6)CC5)cc4)c3n2)c1 [Example 41, N-(3-(2-(2-Aminopyridin-3-yl)-3-(4-((4-(6-cyanopyrimidin-4-yl)piperazin-1-yl)methyl)phenyl)-3H-imidazo[4,5-b]pyridin-5-yl)phenyl)acetamide] |
| 7.22 to 7.82 | CC(=O)Nc1cccc(-c2ccc3nc(-c4cccnc4N)n(-c4ccc(CN5CCN(c6cnc(C#N)nc6)CC5)cc4)c3n2)c1 [Example 42, N-(3-(2-(2-Aminopyridin-3-yl)-3-(4-((4-(2-cyanopyrimidin-5-yl)piperazin-1-yl)methyl)phenyl)-3H-imidazo[4,5-b]pyridin-5-yl)phenyl)acetamide] |
| > 7.82 | CC(=O)Nc1cccc(-c2ccc3nc(-c4cccnc4N)n(-c4ccc(CN5CCN(c6ccnc(C#N)n6)CC5)cc4)c3n2)c1 [Example 44, N-(3-(2-(2-Aminopyridin-3-yl)-3-(4-((4-(2-cyanopyrimidin-4-yl)piperazin-1-yl)methyl)phenyl)-3H-imidazo[4,5-b]pyridin-5-yl)phenyl)acetamide] |
| > 7.82 | CC(=O)Nc1cccc(-c2ccc3nc(-c4cccnc4N)n(-c4ccc(CN5CCN(c6nccc(C#N)n6)CC5)cc4)c3n2)c1 [Example 46, N-(3-(2-(2-Aminopyridin-3-yl)-3-(4-((4-(4-cyanopyrimidin-2-yl)piperazin-1-yl)methyl)phenyl)-3H-imidazo[4,5-b]pyridin-5-yl)phenyl)acetamide] |
| > 7.82 | N#Cc1nccc(N2CCN(Cc3ccc(-n4c(-c5cccnc5N)nc5ccc(-c6ccccc6)nc54)cc3)CC2)n1 [Example 49, 4-(4-(4-(2-(2-Aminopyridin-3-yl)-5-phenyl-3H-imidazo[4,5-b]pyridin-3-yl)benzyl)piperazin-1-yl)pyrimidine-2-carbonitrile] |
| 7.22 to 7.82 | N#Cc1cc(C(=O)NC2CCN(Cc3ccc(-n4c(-c5cccnc5N)nc5ccc(-c6ccccc6)nc54)cc3)CC2)ccn1 [Example 55, N-(1-(4-(2-(2-Aminopyridin-3-yl)-5-phenyl-3H-imidazo[4,5-b]pyridin-3-yl)benzyl)piperidin-4-yl)-2-cyanoisonicotinamide] |
| > 7.82 | N#Cc1cccc(C(=O)NC2CCN(Cc3ccc(-n4c(-c5cccnc5N)nc5ccc(-c6ccccc6)nc54)cc3)CC2)n1 [Example 56, N-(1-(4-(2-(2-Aminopyridin-3-yl)-5-phenyl-3H-imidazo[4,5-b]pyridin-3-yl)benzyl)piperidin-4-yl)-6-cyanopicolinamide] |
| > 7.82 | N#Cc1ncccc1C(=O)NC1CCN(Cc2ccc(-n3c(-c4cccnc4N)nc4ccc(-c5ccccc5)nc43)cc2)CC1 [Example 58, N-(1-(4-(2-(2-Aminopyridin-3-yl)-5-phenyl-3H-imidazo[4,5-h]pyridin-3-yl)benzyl)piperidin-4-yl)-2-cyanonicotinamide] |
| 7.22 to 7.82 | N#Cc1cnccc1C(=O)NC1CCN(Cc2ccc(-n3c(-c4cccnc4N)nc4ccc(-c5ccccc5)nc43)cc2)CC1 [Example 59, N-(1-(4-(2-(2-Aminopyridin-3-yl)-5-phenyl-3H-imidazo[4,5-b]pyridin-3-yl)benzyl)piperidin-4-yl)-3-cyanoisonicotinamide] |
| > 7.82 | N#Cc1ccncc1C(=O)NC1CCN(Cc2ccc(-n3c(-c4cccnc4N)nc4ccc(-c5ccccc5)nc43)cc2)CC1 [Example 60, N-(1-(4-(2-(2-Aminopyridin-3-yl)-5-phenyl-3H-imidazo[4,5-b]pyridin-3-yl)benzyl)piperidin-4-yl)-4-cyanonicotinamide] |
| > 7.82 | N#Cc1cccnc1C(=O)NC1CCN(Cc2ccc(-n3c(-c4cccnc4N)nc4ccc(-c5ccccc5)nc43)cc2)CC1 [Example 61, N-(1-(4-(2-(2-Aminopyridin-3-yl)-5-phenyl-3H-imidazo[4,5-b]pyridin-3-yl)benzyl)piperidin-4-yl)-3-cyanopicolinamide] |
